From US7868026B2, “Therapeutic compounds” (Pfizer Inc., priority 2005, dated 2011)
Read-outs that look alike come from different tables or passages of the source.

Key:
CYP3A4 [1] = target: T1, CYP3A4 (Homo sapiens, UniProt P08684); test: Determination of IC50 against CYP3A4 by measurement of inhibition of midazolam metabolism (human liver microsomes, 1-hydroxymidazolam by LC-MS/MS); type: biochemical; design: 0.1 mg/mL human liver microsomes; conditions: 2 μM midazolam, 0.1 mg/mL human liver microsomes
Experimental: 3. Determination of IC50 Against CYP3A4 by Measurement of Inhibition of Midazolam Metabolism
This assay was performed using a standard 96 well plate design. […] The incubation substrate mix contains 2 μM midazolam, 0.1 mg/mL human liver microsomes, 1 mM NADPH, and potassium phosphate buffer (100 mM, pH 7.4). Quantitation of metabolite peak area ratio against internal standard is determined by LC-MS/MS analysis. The production of 1-hydroxymidazolam from midazolam metabolism is determined after incubation for eight minutes by comparison to a standard curve generated for the metabolite.
Samples were analyzed in the MRM mode using a Sciex API 3000 mass spectrometer (Applied Biosystems, Foster City, Calif.) with a Paradigm MS4 binary pump (Michrom BioResources Inc., Auburn, Calif.) and a LEAP CTC PAL autosampler (LEAP Technologies, Carrboro, N.C.). A Phenomenex Synergi, 4μ, Polar-RP, 10×2.0 mm column (Phenomenex, Torrance, Calif.) was used for separation with a mobile phase composition of: 0.1% formic acid in water (A) and: 0.1% formic acid in methanol (B). The following gradient was used: […]
The sample injection volume was 10 μL and flow was split post-column with 0.4 mL/min going to the mass spectrometer. Analysis was performed using the following API 3000 mass spectrometer settings: […]

CYP3A4 [2] = target: T1, CYP3A4; test: Determination of compound Kiapp against recombinant CYP3A4 enzyme (BFC fluorescent substrate); type: biochemical
Experimental: 1. Determination of compound Kiapp
A determination of the Kiapp of the compounds of the invention against recombinant CYP3A4 enzyme was performed as follows. The assay was performed in a 100 mM sodium phosphate buffer pH 7.0, 5 mM TCEP and containing 2% dimethylformamide (final concentration) upon addition of substrate and inhibitor. A typical reaction for the determination of Kiapp values was carried at room temperature in a solid black Costar u-bottom 96-well polypropylene plate. In each well, recombinant CYP3A4 enzyme (5.5 nM or 8 nM, final concentration depending on the commercial source of the enzyme) was pre-incubated in the presence of the inhibitor for at least 30 minutes in the assay buffer. When pre-incubation was completed (˜30 min), the reaction was initiated by adding NADPH (200 uM, final concentration), and 7-benzyloxy-4-(trifluoromethyl)-coumarin (BFC) (5 uM, final concentration). The oxidation of the coumarin substrate was recorded by a 96-well plate reader POLARstar (BMG LABTECH, Offenburg, Germany).
The initial reaction velocities were measured during the first 5 min of the reaction when the release of the fluorescent product is linear with time, in the absence and in the presence of various concentrations of inhibitors. For non-partial & partial inhibitors, the Kiapp values were determined by using the equation for tight-binding inhibitor developed by Morrison, J F (Morrison J F. Biochim Biophys Acta. 1969, 185: 269-86) and by Szedlaseck S E et al. (Szedlascek, S. E., Ostafe, V., Serban, M., and Vlad, M.O. Biochem. J. 1988, 254:311-312), respectively.
The fluorescent substrate BFC was purchased from Sigma (St Louis, Mo.). Two commercial sources of recombinant enzymes were used in this study: recombinant CYP3A4−b5 enzyme (Baculosomes®) was purchased from Invitrogen (Carlsbad, Calif.) and the recombinant CYP3A4+b5 enzyme (Supersomes®) was purchased from BD Biosciences (Woburn, Mass.).

[3] = Baculo. enzyme preparation, read-out: Kiapp (BFC, Baculo.)
[4] = Super. enzyme preparation, read-out: Kiapp (BFC, Super.)

T1 sequence (P08684 whole entry): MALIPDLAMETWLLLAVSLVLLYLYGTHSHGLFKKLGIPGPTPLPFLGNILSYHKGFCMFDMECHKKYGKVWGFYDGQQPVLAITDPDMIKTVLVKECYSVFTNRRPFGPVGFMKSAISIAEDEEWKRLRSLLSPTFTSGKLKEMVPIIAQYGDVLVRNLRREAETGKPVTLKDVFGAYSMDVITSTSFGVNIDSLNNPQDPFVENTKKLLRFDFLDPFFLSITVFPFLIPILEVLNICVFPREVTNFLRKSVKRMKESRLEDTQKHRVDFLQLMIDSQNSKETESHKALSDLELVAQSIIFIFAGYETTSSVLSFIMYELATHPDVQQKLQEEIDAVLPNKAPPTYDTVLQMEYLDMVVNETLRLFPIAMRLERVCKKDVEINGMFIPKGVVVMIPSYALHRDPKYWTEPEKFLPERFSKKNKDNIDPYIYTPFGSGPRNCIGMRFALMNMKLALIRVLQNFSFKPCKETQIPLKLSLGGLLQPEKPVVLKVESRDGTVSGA

| Structure (SMILES) | IC50 (CYP3A4 [1]) | Ki (CYP3A4 [2]; [3]) | Ki (CYP3A4 [2]; [4]) |
| --- | --- | --- | --- |
| Nc1cncc(NS(=O)(=O)c2ccccc2C(=O)NCc2ccc(F)c(F)c2)c1 [Example 117, 2-{[(5-aminopyridin-3-yl)amino]sulfonyl}-N-(34-difluorobenzyl)benzamide] | 20 nM | 159 nM | 14.8 nM |
| CCC(C)CNC(=O)c1ccccc1S(=O)(=O)Nc1cncc(C)c1 (stereo not drawn) [Example 118, N-(2-methylbutyl)-2-{[(5-methylpyridin-3-yl)amino]sulfonyl}benzamide] | 18 nM | 103 nM | 13.5 nM |
| CCOc1ccncc1NS(=O)(=O)c1ccccc1C(=O)NC(C)CC (stereo not drawn) [Example 119, N-(sec-butyl)-2-{[(4-ethoxypyridin-3-yl)amino]sulfonyl}benzamide] | 45 nM | 249 nM | 71.2 nM |
| CCC(C)NC(=O)c1ccccc1S(=O)(=O)Nc1cnccc1OC (stereo not drawn) [Example 120, N-(sec-butyl)-2-{[(4-methoxypyridin-3-yl)amino]sulfonyl}benzamide] | 86 nM | 487 nM | 140 nM |
| CCC(C)NC(=O)c1ccccc1S(=O)(=O)Nc1cncc(C)c1 (stereo not drawn) [Example 121, N-(sec-butyl)-2-{[(5-methylpyridin-3-yl)amino]sulfonyl}benzamide] | 31 nM | 490 nM | 71.2 nM |
| CCOc1ccncc1NS(=O)(=O)c1ccccc1C(=O)N(C)Cc1ccc(C(F)(F)F)cc1 [Example 122, 2-{[(4-ethoxypyridin-3-yl)amino]sulfonyl}-N-methyl-N-[4-(trifluoromethyl)benzyl]benzamide] | 31 nM | 49.5 nM | 10 nM |
| COc1ccncc1NS(=O)(=O)c1ccccc1C(=O)N(C)Cc1ccc(C(F)(F)F)cc1 [Example 123, 2-{[(4-methoxypyridin-3-yl)amino]sulfonyl}-N-methyl-N-[4-(trifluoromethyl)benzyl]benzamide] | 10 nM | 72.5 nM | 15.2 nM |
| CCOc1ccncc1NS(=O)(=O)c1ccccc1C(=O)N(C)Cc1ccccc1F [Example 124, 2-{[(4-ethoxypyridin-3-yl)amino]sulfonyl}-N-(2-fluorobenzyl)-N-methylbenzamide] | 14 nM | 136 nM | 18 nM |
| COc1ccncc1NS(=O)(=O)c1ccccc1C(=O)N(C)Cc1ccccc1F [Example 125, N-(2-fluorobenzyl)-2-{[(4-methoxypyridin-3-yl)amino]sulfonyl}-N-methylbenzamide] | 20 nM | 185 nM | 31.2 nM |
| COCCN(C(=O)c1ccccc1S(=O)(=O)Nc1cnccc1OC)C(C)C [Example 127, N-isopropyl-N-(2-methoxyethyl)-2-{[(4-methoxypyridin-3-yl)amino]sulfonyl}benzamide] | 107 nM | 694 nM | 282 nM |
| COCCN(C(=O)c1ccccc1S(=O)(=O)Nc1cccnc1)C(C)C [Example 128, N-isopropyl-N-(2-methoxyethyl)-2-[(pyridin-3-ylamino)sulfonyl]benzamide] | 67 nM | 448 nM | 54.9 nM |
| Cc1cncc(NS(=O)(=O)c2ccccc2C(=O)N(C)Cc2ccccc2F)c1 [Example 129, N-(2-fluorobenzyl)-N-methyl-2-{[(5-methylpyridin-3-yl)amino]sulfonyl}benzamide] | 12 nM | 87.6 nM | 9.6 nM |
| COCCN(C(=O)c1ccccc1S(=O)(=O)Nc1cncc(C)c1)C(C)C [Example 130, N-isopropyl-N-(2-methoxyethyl)-2-{[(5-methylpyridin-3-yl)amino]sulfonyl}benzamide] | 22 nM | 134 nM | 62.8 nM |
| COc1cncc(NS(=O)(=O)c2ccccc2C(=O)NCC(F)(F)C(F)(F)C(F)(F)F)c1 [Example 131, N-(2,2,3,3,4,4,4-heptafluorobutyl)-2-{[(5-methoxypyridin-3-yl)amino]sulfonyl}benzamide] | > 750 nM | > 1000 nM | 329 nM |
| COc1cncc(NS(=O)(=O)c2ccccc2C(=O)NCc2ccc(Cl)c(F)c2)c1 [Example 132, N-(4-chloro-3-fluorobenzyl)-2-{[(5-methoxypyridin-3-yl)amino]sulfonyl}benzamide] | 8 nM | 40.6 nM | 8.4 nM |
| COc1cncc(NS(=O)(=O)c2ccccc2C(=O)NCc2c(Cl)cccc2Cl)c1 [Example 133, N-(2,6-dichlorobenzyl)-2-{[(5-methoxypyridin-3-yl)amino]sulfonyl}benzamide] | 18 nM | 67.8 nM | 11.6 nM |
| COc1cncc(NS(=O)(=O)c2ccccc2C(=O)NCCc2ccc(C(F)(F)F)c(F)c2)c1 [Example 134, N-{2-[3-fluoro-(trifluoromethyl)phenyl]ethyl}-2-{[(5-methoxypyridin-3-yl)amino]sulfonyl}benzamide] | 14 nM | 69.7 nM | 8.7 nM |
| COc1cncc(NS(=O)(=O)c2ccccc2C(=O)NC(C)Cc2ccc(F)c(F)c2)c1 (stereo not drawn) [Example 135] | 18 nM | 24.8 nM | 4.9 nM |
| COc1cncc(NS(=O)(=O)c2ccccc2C(=O)NCCc2ccc(C)c(F)c2F)c1 [Example 136, N-[2-(2,3-difluoro-4-methylphenyl)ethyl]-2-{[(5-methoxypyridin-3-yl)amino]sulfonyl}benzamide] | 10 nM | 59.8 nM | 4.8 nM |
| COc1cncc(NS(=O)(=O)c2ccccc2C(=O)NCCc2ccc(F)c(F)c2)c1 [Example 137, N-[2-(3,4-difluorophenyl)ethyl]-2-{[(5-methoxypyridin-3-yl)amino]sulfonyl}benzamide] | 18 nM | 115 nM | 7.3 nM |
| COc1cncc(NS(=O)(=O)c2ccccc2C(=O)NCc2ccc(C)c(Cl)c2)c1 [Example 138, N-(3-chloro-4-methylbenzyl)-2-{[(5-methoxypyridin-3-yl)amino]sulfonyl}benzamide] | 16 nM | 19.6 nM | 2.7 nM |
| Cc1ccncc1NS(=O)(=O)c1ccccc1C(=O)N(C)Cc1ccccc1 [Example 139, N-benzyl-N-methyl-2-{[(4-methylpyridin-3-yl)amino]sulfonyl}benzamide] | 48 nM | 388 nM | 51.1 nM |
| CN(Cc1ccc(C(F)(F)F)cc1)C(=O)c1ccccc1S(=O)(=O)Nc1cccnc1 [Example 140, N-methyl-2-[(pyridin-3-ylamino)sulfonyl]-N-[4-(trifluoromethyl)benzyl]benzamide] | 56 nM | 160 nM | 17.3 nM |
| CN(Cc1ccc(F)cc1)C(=O)c1ccccc1S(=O)(=O)Nc1cccnc1 [Example 141, N-(4-fluorobenzyl)-N-methyl-2-[(pyridin-3-ylamino)sulfonyl]benzamide] | 36 nM | 172 nM | 21.1 nM |
| CCOc1ccncc1NS(=O)(=O)c1ccccc1C(=O)N(C)Cc1ccc(F)cc1 [Example 142, 2-{[(4-ethoxypyridin-3-yl)amino]sulfonyl}-N-(4-fluorobenzyl)-N-methylbenzamide] | 26 nM | 111 nM | 11.8 nM |
| COc1ccncc1NS(=O)(=O)c1ccccc1C(=O)N(C)Cc1ccc(F)cc1 [Example 143, N-(4-fluorobenzyl)-2-{[(4-methoxypyridin-3-yl)amino]sulfonyl}-N-methylbenzamide] | 58 nM | 169 nM | 29 nM |
| Cc1ccncc1NS(=O)(=O)c1ccccc1C(=O)N(C)Cc1ccc(F)cc1 [Example 144, N-(4-fluorobenzyl)-N-methyl-2-{[(4-methylpyridin-3-yl)amino]sulfonyl}benzamide] | 72 nM | 327 nM | 39 nM |
